Results on two compounds are retold here after patent US5510469A, “2-acyloxy-4-morpholinyl anthracyclines” (priority 1990, dated 1996).

≈ marks a conversion by molar mass, not a printed value. Read-outs that look alike come from different tables or passages of the source.

The subject of one assay is LoVo cells. Description: Colony assay (cytotoxicity after 4 hr treatment), LoVo cells. In kind it is cell-based. Conditions: Homo sapiens, read-out: IC50 (concentration inhibiting 50% colony growth), LoVo. As for the experimental part:
(§1) 3'-deamino-3' 2-benzoyl-4-morpholinyl!doxorubicin (1a) was tested "in vitro" against LoVo and LoVo-resistant-doxorubicin (LoVo/DX) cells using a single cell plating technique after 4 hr treatment (Colony assay). The 50% inhibition concentration (IC50) was calculated using concentration-response curves. Compound 1a was tested in comparison with Doxorubicin.
(§2) Cytotoxicity after 4 hr treatment IC50 = ng/ml^(1)
(§3) ^(1) IC50 = concentration inhibiting 50% colony growth

The next assay has as its system LoVo/DX cells. Description: Colony assay (cytotoxicity after 4 hr treatment), LoVo-resistant-doxorubicin (LoVo/DX) cells. In kind it is cell-based. Conditions: for IC50: read-out: IC50 (concentration inhibiting 50% colony growth), LoVo/DX; for R.I. = Resistance Index = (IC50 LoVo/DX)/(IC50 LoVo): ratio LoVo/DX to LoVo. As for the experimental part: as §1, §2, §3
^(2) R.I. = Resistance Index = (IC50 LoVo/DX)/(IC50 LoVo)

The subject of assay [1] is P388/DX (Johnson) Leukemias. As to the kind of experiment: Antitumor activity in vivo against P388 murine leukemia resistant to Doxorubicin (P388/DX, Johnson). The following applies: P388/DX 10^5 cells/mouse i.v. in CDF mice; treatment on day 1; at optimal dose: 1a 1.2 mg/kg, Doxorubicin 13-16.9 mg/kg. How it is done: Antitumor activity against P388/DX
^(1) 10^5 cells/mouse (P388/DX, Johnson) transplanted i.v. in CDF
Treatment on day 1 after inoculation of tumor.
^(3) Median survival time; % over […] controls.
Compound 1a was evaluated "in vivo" against P388 murine Leukemias resistant to Doxorubicin, in comparison with Doxorubicin.

With `COc1cccc2c1C(=O)c1c(O)c3c(c(O)c1C2=O)C[C@@](O)(C(=O)CO)C[C@@H]3O[C@H]1C[C@H](N)[C@H](O)[C@H](C)O1` [Doxorubicin, doxorubicin], the IC50 worked out at 0.06 µg/mL (≈ 0.11 µM) in the assay on LoVo cells (LoVo cells, 4 hr treatment, colony assay) and 2.16 µg/mL (≈ 3.97 µM) in the assay with LoVo/DX cells (LoVo/DX cells, 4 hr treatment, colony assay). In the assay on LoVo/DX cells (4 hr treatment), the “R.I. = Resistance Index = (IC50 LoVo/DX)/(IC50 LoVo)” value was found to be 36. Besides, in assay [1], the “T/C % (median survival time; % over treated controls)” value is listed as 86-100%.
Turning to `COc1cccc2c1C(=O)c1c(O)c3c(c(O)c1C2=O)C[C@@](O)(C(=O)CO)C[C@@H]3O[C@H]1C[C@H](N2CCOC(OC(=O)c3ccccc3)C2)[C@H](O)[C@H](C)O1` (some centres unmarked) [Compound 1a], the IC50 with LoVo cells (LoVo, 4 h) was determined as 0.0069 µg/mL (≈ 0.0094 µM); in the assay with LoVo/DX cells (LoVo/DX, 4 h), 0.027 µg/mL (≈ 0.0368 µM). Also, in the assay with LoVo/DX cells (4 hr treatment), the “R.I. = Resistance Index = (IC50 LoVo/DX)/(IC50 LoVo)” value turned out to be 3.9. For the same compound, in assay [1], the “T/C % (median survival time; % over treated controls)” value stood at 175%.
